Data: patent EP1785417A2, “Novel non-psychotropic cannabinoids” (priority 2000, dated 2001)

How the values were obtained:
[1] = tested on: rats following Closed Head Injury (CHI); assay: Rat model of closed head injury (cerebral edema, NSS); format: in vivo; conditions: for Neurological score 1hr / ΔNSS 24hr / Neurological score 24hr / Water content Left / Water content Right: rats, CHI; for Neurological score 1hr: 1 hr after injury; for Neurological score 24hr: 24 hr after injury; for Water content Left / Water content Right: doses of 5-10 mg/kg
Procedure: The cerebroprotective effect of PRS-211 compounds was assessed in a model of head trauma (HT) in rats. Injury was induced in anesthetized rats by a weight-drop device followed by a recovery period of up to 48 hours. This type of trauma produces brain edema (i.e. increase in water content, decrease in specific gravity in the brain), breakdown of the blood brain barrier (BBB) and clinical dysfunction. The clinical status of the rats was evaluated 1, 24 and 48 hours after injury along with measuring the extent of cerebral edema. The neurological deficit, assessed by a set of criteria termed the Neurological Severity Score (NSS), is maximal at 1 hour after the initiation of head trauma. The NSS slowly decreases over time from the initiation of HT, with the gradual spontaneous recovery of the rats.
The model was described in detail by Shapira et al., Crit. Care Med. 16:258-265, 1988. Rats were subjected to head trauma (HT) by a weight-drop device and surviving rats were followed up after one week. During that period they had free access to food and water, and were kept 2-3 rats to a cage. At any predesignated time (15 min, 1, 4, 24, 48 hrs, etc.) rats were sacrificed. Their brains were then rapidly removed and cortical tissue taken to determine water content, ions and the metabolites of interest at any particular metabolic cascade studied. During the recovery period, the clinical status was evaluated by a set of criteria (NSS).
Trauma induced a significant decrease in specific gravity (SG) of brain tissue and increase in water content following head injury. Edema developed since more water accumulates in either the extracellular (vasogenic) or intracellular (cytotoxic) spaces. The methods employed to determine edema are based on linear gradient columns of bromobenzene and kerosene (for SG) and for water content on drying the tissue in a desiccated oven. Tissue pieces (20 mg each) were placed on top of the column and the SG calculated from the equilibrium position in the column, using a standard curve.
The effect of PRS-211 analogs was calculated by the percent edema formation, where 100% was taken as edema in control, non-treated rats. Thus, the reduction in the SG was calculated as follows: SG(sham)-SG(drug)/SG(sham)-SG(cont) × 100 [formula] The increase in water content was calculated as follows: [%H2O(drug-%H2 O(sham)/%H2 O(cont)-%H2 O(sham)] × 100 [formula] All results presented in the table are statistically different (p<0.05) from control, traumatized vehicle treated rats.

PGE2 = assay: Inhibition of prostaglandin synthesis (PGE2) in LPS-stimulated macrophage cell cultures; format: cell-based; conditions: LPS-stimulated macrophages
From the text: Evaluation of the therapeutic effects of the novel PRS-211 compounds has now been carried out in a series of experimental systems to support the utility of these drugs as neuroprotectants, anti-inflammatory agents and anti-oxidative agents. These effects have been evaluated both in vitro and in vivo, and have been corroborated utilizing the following systems: • (a) Binding to the NMDA receptor linked channel: Non competitive antagonists of NMDA, the primary example of which is the compound MK-801, bind to a site within the NMDA receptor channel thus preventing the activation of the receptor-channel complex and the consequent neurotoxicity. The ability of various compounds to compete with the binding of tritium labeled MK-801 to brain membranes is considered a measure of their potency as NMDA non-competitive antagonists. • (b) Inhibition of prostaglandin production: The inhibitory effect of the new derivatives of Dexanabinol on prostaglandin synthesis is evaluated in macrophage cell cultures following LPS exposure to induce the inflammatory response. These assays are an indication of the anti-inflammatory activity of the individual analogs. • (c) Inhibition of Tumor Necrosis Factor Alpha: Specific aspects of the inflammatory response cascade are mediated by the cytokine TNFα. Inhibition of TNFα production and/or inhibition of TNFα release by the new analogs are assayed in macrophage cell cultures activated with LPS. This serves as another indication of the general anti-inflammatory potential of the novel compounds. • (d) Nitric Oxide Assay: As one aspect of the anti-oxidative potential of the novel analogs they were tested for their ability to inhibit the enzyme nitric oxide synthase (NOS). This assay can also serve as another indication of the anti-inflammatory cascade, as well as the anti-oxidative mechanisms. • (e) Ear Edema model: The anti-inflammatory activity of the new analogs is screened using an ear edema model in mice. This test system utilizes Croton oil or Arachidonic acid as inflammation inducers. The ability of the test compounds to prevent or diminish the inflammatory response to these stimulants is indicative of their systemic anti-inflammatory capability. • (f) Improved clinical outcome after closed head injury in rats: Severe head injury is associated with high mortality and severe neurological impairment. Animals subjected to head trauma in a controlled fashion serve as models in which to test drugs of therapeutic potential. Test compounds can be evaluated both for improved clinical outcome and for reduction of edema induced by closed head injury. The ability of compounds to reduce the severity of neurological symptoms and to reduce brain edema is considered a measure of their potency in reducing brain damage. • (g) Transient Middle cerebral artery occlusion (MCAo): The middle cerebral artery is the cerebral blood vessel most susceptible to stroke in humans. In animals, coagulation, permanent ligation or permanent placement of an occluding thread in the artery produces a permanent focal stroke affecting the MCA territory. Transient ligation or occlusion results in transient focal stroke. Both transient and permanent focal strokes result in varying degrees of edema and infarction in the affected brain regions. The ability of compounds to reduce the volumes of edema and infarction is considered a measure of their potential as anti-stroke treatment. • (h) Optic Nerve Crush: Application of mechanical pressure to the rat optical nerve results in crush injury of the axons, which is accompanied by immediate changes in oxidative metabolism and delayed axonal death and blindness. […]

kainic acid = assay: Radioligand binding: inhibition of kainic acid binding to membranes; set-up: species or system rat
[2] = even at doses several thousand times higher than the ED50 of HU-210; cited from earlier work
AMPA = assay: Radioligand binding: inhibition of AMPA binding to membranes; set-up: species or system rat

CCCCCCC(C)(C)c1cc(O)c2c(c1)OC(C)(C)[C@H]1CC=C(Cn3ccnc3)C[C@H]21 (single isomer, unassigned) [211,095-000]
edema formation and BBB disruption ([1]; given 30 min before, immediately after, or 1 and 2 hours after HT): significantly reduces edema formation and BBB disruption
edema and clinical outcome ([1]; one dose of 5 mg/kg given 1 hour after the impact, measured 24 hours after HT): effectively reduced edema and improved the clinical outcome
Neurological score 1hr [1]: 11.9 ±0.6
ΔNSS 24hr [1]: 6.5 ±0.45
Neurological score 24hr [1]: 5.4 ±0.5
Water content Left [1]: 82.89 ±0.48
Water content Right [1]: 79.75 ±0.20
inhibition at 10 µM (PGE2): 72%

CCCCCCC(C)(C)c1cc(O)c2c(c1)OC(C)(C)[C@H]1CC=C(CO)C[C@H]21 [211,007-000 HU-211, 1,1 dimethyl heptyl-(3 S,4S)-7-hydroxy-Δ^6-tetrahydrocannabinol, reference compound]
Neurological score 1hr [1]: 11.7 ±0.7
ΔNSS 24hr [1]: 5.5 ±0.42
Neurological score 24hr [1]: 6.3 ±0.6
Water content Left [1]: 83.09 ±0.51
Water content Right [1]: 79.37 ±0.30
inhibition at 10 µM (PGE2): 54%
inhibition of kainic acid binding (kainic acid): unable to inhibit
cannabimimetic activity [2]: inactive
inhibition of AMPA binding (AMPA): unable to inhibit
